Assay results taken from patent US6642003B2, “Human glucose-dependent insulin-secreting cell line” (Cedars-Sinai Medical Center, priority 2001, dated 2003).

Columns and labels:
PANC-1 cells = assay: RT-PCR of islet β-cell specific transcripts, parental PANC-1 cells; format: cell-based, human; conditions: GLP-1 10 nM for 96 h
Procedure: After the treatment of ARIP and PANC-1 cells with GLP-1, Exendin-9, or vehicle, for the described length of time and the various doses, the culture medium was removed and the cells were washed (twice) with serum-free medium. Total RNA was isolated using the TRiazol-method (Gibco-BRL), and treated with DNase (Amplification Grade, GibcoBRL) in 20 mmol/l Tris-HCL (pH 8.4), 2 mmol/l MgCl2, and 50 mmol/l KCl to remove any traces of contaminating genomic DNA. RNA (2.5 μg) was then subjected to reverse transcription (RT reagents; Promega; Madison, Wis.). RT-PCR was undertaken in a volume of 50 μl of buffer containing 50 mmol/l KCl, 10 mmol/l Tris-HCl, 3.5 mmol/l MgCl2, 200 μmol/l each dNTPs, and 0.4 μmol/l each of sense and antisense primers to rat or human insulin (depending on the specific cell from which the RNA was extracted). Amplification was performed for 30 cycles at the denaturing temperature of 94° C. for 1 min, annealing temperature of 60° C. for 45 sec, and an extension temperature of 72° C. for 1 min. […] These included more irregular and variable cell shapes, with a cytoplasm less homogenous and “rougher” in appearance than control culture.
Treatment with GLP-1 induces the differentiation of ductal epithelial cells into insulin-producing cells. FIG. 2 illustrates a series of cell cultures grown with or without GLP-1 (10 nM) for 72 h. […]

ARIP cells [1] = assay: Flow cytometric (FACS) analysis for insulin, ARIP cells; format: cell-based, rat; conditions: GLP-1 10 nM, 72 hours
Procedure: For fluorescence-activated cells sorting (FACS) analysis, cells were cultured in the presence of GLP-1 (10 nM), or vehicle, for 72 h, then washed with cold PBS (pH 7.4; three times) and incubated overnight, on ice, in PBS with 2% paraformaldehyde. After centrifugation, the cell pellet was resuspended in 400 μl of cold 0.1% Triton diluted in FACS buffer (PBS with 2% FCS). After several centrifugation and washes, the cells were resuspended in the assay buffer with of 10 μl of fluorescent-conjugated insulin antibody (Cat N. FM205, FITC: Chromaprobe, Inc; Mountain View, Calif.), in the presence of 10 μl of blocking antibody (anti-mouse IgG; Organon Teknika-Cappel, West Chester, Pa.). Control samples were treated with PBS, without the primary antibody, and then incubated with an […] FITC-conjugated control antibody (murine IgG; Chromaprobe Inc., Mountain View, Calif.). Flow cytometric analysis was performed with a FACScan[R] cytometer, using the LYSYS II program, and by fluorescence microscopy, as is well known in the art. See, e.g., E. Elstner, M. Linker-Israeli, J. Le, T. Umiel, P. Michl, J. W. Said, L. Binderup, J. C. […]

ARIP cells [2] = assay: Immunofluorescence for IDX-1, ARIP cells; format: cell-based, rat
Procedure: Cells were cultured on monocoated chamber slides (Nalge Nunc International; Naperville, Ill.) in the presence of GLP-1 (10 nM), or vehicle, for 72 h.
For the detection of IDX-1, slightly different conditions were used. Briefly: the concentration of paraformaldehyde was decreased to 2%, and the concentration of Triton to permeabilize the cells was raised to 0.2% Triton-X-100. Cells were then washed with 0.01 M PBS three times for 3-5 min, and non-specific binding was inhibited by using 5% chick serum in 0.01 M PBS, at room temperature for 60 min in a humid chamber. A rabbit IDX-1 antibody directed against the N-terminus of the frog homologue of the IDX-1 gene was used as the primary antibody (1:500 diluted with 0.1% Triton-X 100, 1% BSA in 0.01 M PBS), and slides were incubated at 4° C. overnight in a humid chamber. After washing, cells were incubated with a fluorescein-conjugated goat anti-rabbit IgG antibody (Molecular Probes, Inc. Eugene, Oreg.) and incubated at room temperature for 1 hour in a humid chamber. Nuclei of cells stained with anti-IDX-1 antibody were visualized with Hoechst […] dye (Sigma, St. Louis, Mo.). The percentage of IDX-1 containing cells was evaluated by counting the number of IDX-1 “positive” cells divided by the total number of cells identified by nuclear staining.

PANC-1/IDX-1 cells = assay: Morphological changes (hematoxylin and eosin), PANC-1/IDX-1 cells; format: cell-based, human; conditions: GLP-1 10 nM for 72 h
Procedure: PANC-1 cells were transfected with a pcDNA3 construct (Invitrogen; Carlsbad, Calif.) harboring the wild-type full-length IDX-1 cDNA using LipoTAXI (Catalog N. 204110; Mammalian Transfection Kit, Stratagene; La Jolla, Calif.). Control cells were transfected with the vector alone. The selection of positive (i.e. transfected) cells was carried out by culturing the cells in the presence of 400 μg/ml of G418 sulfate (GN-04, Omega; Tarzana, Calif.).
Hematoxylin and eosin staining was employed, in some experiments, to show the morphological changes observed under the experimental conditions described below.

## glucagon-like peptide-1 [GLP-1]
PANC-1 cells
  RT-PCR for insulin: consistently negative
ARIP cells [1]
  cells reacting with anti-human insulin antibody: 72.6%
ARIP cells [2]; GLP-1 10 nM for 72 h
  effect on expression level of IDX-1: further increase
ARIP cells [2]; GLP-1 or vehicle, 400 cells counted
  cells expressing IDX-1: approximately 70%
PANC-1/IDX-1 cells
  morphological change: cell aggregation: further promoted the tendency of forming few-cells aggregates
  morphological change: cell size: increase in the size of individual cells
